{"source": "patent US20250230193A1", "about": "“CYCLIC COMPOUND HAVING SELECTIVE KRAS INHIBITORY EFFECT ON HRAS AND NRAS” (CHUGAI SEIYAKU KABUSHIKI KAISHA, priority 2022, published 2025)", "key": {"[1]": {"biological_target": "GDP-bound HRAS wild-type protein (Homo sapiens, UniProt P01112)", "sequence (P01112 whole entry)": "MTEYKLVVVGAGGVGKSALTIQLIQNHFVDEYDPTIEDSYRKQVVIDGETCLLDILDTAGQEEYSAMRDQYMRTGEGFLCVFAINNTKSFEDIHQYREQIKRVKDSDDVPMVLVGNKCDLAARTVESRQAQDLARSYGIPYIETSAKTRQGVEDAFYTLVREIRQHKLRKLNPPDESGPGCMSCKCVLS", "experiment": "Binding to HRAS by surface plasmon resonance (SPR), Single Cycle Kinetics"}, "[2]": {"biological_target": "GDP-bound NRAS wild-type protein (Homo sapiens, UniProt P01111)", "sequence (P01111 whole entry)": "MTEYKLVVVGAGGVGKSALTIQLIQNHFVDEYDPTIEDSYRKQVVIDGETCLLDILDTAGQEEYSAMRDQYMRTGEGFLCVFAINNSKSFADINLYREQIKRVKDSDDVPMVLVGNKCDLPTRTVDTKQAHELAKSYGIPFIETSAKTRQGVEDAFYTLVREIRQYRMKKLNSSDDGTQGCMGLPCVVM", "experiment": "Binding to NRAS by surface plasmon resonance (SPR), Single Cycle Kinetics"}, "[3]": {"conditions": "GDP-bound HRAS wild-type vs GDP-bound KRAS wild-type, SPR"}, "[4]": {"conditions": "GDP-bound NRAS wild-type vs GDP-bound KRAS wild-type, SPR"}}, "note": "Where a SMILES comes first, the peptide text is derived from it. Bridges are numbered along the chain shown (N, C = ends). [ ]: non-standard residue; d: D form. The star is where a group is joined. hPhe(3-Cl-4-CF3) = N[C@@H](CCc1ccc(C(F)(F)F)c(Cl)c1)C(=O)O; NEtPhe(4-Me) = CCN[C@@H](Cc1ccc(C)cc1)C(=O)O; NMeGly(cPent) = CN[C@H](C(=O)O)C1CCCC1; Hyp = O=C(O)[C@@H]1C[C@@H](O)CN1; NMeD = CN[C@@H](CC(=O)O)C(=O)O; NMeL = CN[C@@H](CC(C)C)C(=O)O; Morpholide = C1CN(*)CCO1; Ac5c = NC1(C(=O)O)CCCC1; Sar = CNCC(=O)O", "data": [{"smiles": "CC[C@H](C)[C@@H]1NC(=O)[C@H](CC(C)C)N(C)C(=O)C[C@@H](C(=O)N2CCOCC2)N(C)C(=O)[C@H](C2CCCC2)N(C)C(=O)C2(CCCC2)NC(=O)[C@@H]2C[C@@H](O)CN2C(=O)[C@H](CCc2ccc(C(F)(F)F)c(Cl)c2)NC(=O)CN(C)C(=O)[C@H](Cc2ccc(C)cc2)N(CC)C(=O)CN(C)C(=O)CN(C)C1=O", "note": "[PP0041] ([NMeL]I[Sar][Sar][NEtPhe(4-Me)][Sar][hPhe(3-Cl-4-CF3)][Hyp][Ac5c][NMeGly(cPent)][NMeD]-Morpholide; lactam N-11)", "values": [{"measurement": "HRAS/KRAS (ratio of KD for GDP-bound HRAS wild-type to KD for KRAS)", "setting": "[1]; KD ratio HRAS/KRAS, SPR", "result": "C (A compound having a KD ratio of 0.1 or more and less than 3 is denoted as C)"}, {"measurement": "NRAS/KRAS (ratio of KD for GDP-bound NRAS wild-type to KD for KRAS)", "setting": "[2]; KD ratio NRAS/KRAS, SPR", "result": "B (a compound having 3 or more and less than 10 is denoted as B)"}]}, {"smiles": "CCC[C@H]1C(=O)N[C@@H]([C@@H](C)CC)C(=O)N(C)CC(=O)N(C)[C@H]2C/C=C\\CCN(C2=O)[C@@H](Cc2ccc(C(F)(F)F)cc2)C(=O)N(C)CC(=O)N[C@@H](CCc2ccc(C(F)(F)F)c(Cl)c2)C(=O)N2C[C@H](OCC)C[C@H]2C(=O)NC2(CC(C)(C)C2)C(=O)N(C)[C@@H](CC(C)C)C(=O)N(C)[C@H](C(=O)N(C)C)CC(=O)N1C", "note": "[PP2977]", "values": [{"measurement": "HRAS/KRAS (ratio of KD value with respect to GDP-bound HRAS wild-type protein to KD value with respect to KRAS)", "setting": "[1]; KD ratio HRAS/KRAS, SPR, GDP-bound wild-type proteins", "result": "A (a compound having 10 or more and less than 20 is denoted as A)"}, {"measurement": "NRAS/KRAS (ratio of KD value with respect to GDP-bound NRAS wild-type protein to KD value with respect to KRAS)", "setting": "[2]; KD ratio NRAS/KRAS, SPR, GDP-bound wild-type proteins", "result": "A (a compound having 10 or more and less than 20 is denoted as A)"}]}, {"smiles": "CC[C@H](C)[C@@H]1NC(=O)[C@H](CC)N(C)C(=O)C[C@@H](C(=O)N(C)C)N(C)C(=O)[C@H](C2CCCC2)N(C)C(=O)C2(CCCC2)N(C)C(=O)[C@@H]2C[C@@H](C)CN2C(=O)[C@H](CCc2cc(F)c(C(F)(F)F)c(F)c2)NC(=O)CN(C)C(=O)[C@H](Cc2ccc(C)cc2)N2CC/C=C\\C[C@@H](C2=O)N(C)C(=O)[C@@H]2CCCN2C1=O", "note": "[PP1814]", "values": [{"measurement": "HRAS/KRAS (ratio of KD value for HRAS to KD value for KRAS)", "setting": "[1]; [3]", "result": "A (a compound having 10 or more and less than 20 is denoted as A)"}, {"measurement": "NRAS/KRAS (ratio of KD value for NRAS to KD value for KRAS)", "setting": "[2]; [4]", "result": "A (a compound having 10 or more and less than 20 is denoted as A)"}]}, {"smiles": "CCO[C@@H]1C[C@H]2C(=O)NC3(CC(C)(C)C3)C(=O)N(C)[C@@H](C3CCCC3)C(=O)N(C)[C@H](C(=O)N3CCCC3)CC(=O)N(C)[C@H]3CCC/C=C/c4ccc(cc4)C[C@@H](C(=O)N(C)CC(=O)N[C@@H](CCc4cc(F)c(C(F)(F)F)c(F)c4)C(=O)N2C1)N1CC/C=C\\C[C@@H](C1=O)N(C)C(=O)CN(C)C(=O)[C@H]([C@@H](C)CC)NC3=O", "note": "[PP2574, (1S,7S,11R,13S,19S,22S,26S,29S,35S,37Z,47E)-19-cyclopentyl-7-[2-[3,5-difluoro-4-(trifluoromethyl)phenyl]ethyl]-11-ethoxy-3,3′,3′,18,21,25,31,34-octamethyl-29-[(1S)-1-methylpropyl]-22-(pyrrolidine-1-carbonyl)spiro[3,6,9,15,18,21,25,28,31,34,41-undecazapentacyclo[24.15.10.2^43,46.1^35,41.0^9,13]tetrapentaconta-37,43(53),44,46(52),47-pentaene-16,1′-cyclobutane]-2,5,8,14,17,20,24,27,30,33,54-undecone]", "values": [{"measurement": "HRAS/KRAS (ratio of KD value with respect to GDP-bound HRAS wild-type protein to KD value with respect to KRAS)", "setting": "[1]; KD ratio HRAS/KRAS, class symbols", "result": "A (a compound having 10 or more and less than 20 is denoted as A)"}, {"measurement": "NRAS/KRAS (ratio of KD value with respect to GDP-bound NRAS wild-type protein to KD value with respect to KRAS)", "setting": "[2]; KD ratio NRAS/KRAS, class symbols", "result": "A (a compound having 10 or more and less than 20 is denoted as A)"}]}, {"smiles": "CCO[C@@H]1C[C@H]2C(=O)NC3(CCCC3)C(=O)N(C)[C@@H](C3CCCC3)C(=O)N(C)[C@H](C(=O)N(C)C)CC(=O)N(C)[C@@H](CC(C)C)C(=O)N[C@@H]([C@@H](C)CC)C(=O)N(C)CC(=O)N(C)[C@H]3C/C=C\\CCN(C3=O)[C@@H](Cc3ccc(C(F)(F)F)cc3)C(=O)N(C)CC(=O)N[C@@H](CCc3cc(F)c(Cl)c(F)c3)C(=O)N2C1", "note": "[PP2269]", "values": [{"measurement": "HRAS/KRAS (ratio of KD value with respect to HRAS to KD value with respect to KRAS)", "setting": "[1]; SPR, GDP-bound HRAS wild-type vs GDP-bound KRAS wild-type", "result": "A (a compound having 10 or more and less than 20 is denoted as A)"}, {"measurement": "NRAS/KRAS (ratio of KD value with respect to NRAS to KD value with respect to KRAS)", "setting": "[2]; SPR, GDP-bound NRAS wild-type vs GDP-bound KRAS wild-type", "result": "A (a compound having 10 or more and less than 20 is denoted as A)"}]}, {"smiles": "CCCN(C)C(=O)[C@@H]1CC(=O)N(C)[C@@H](CCOC)C(=O)N[C@@H]([C@@H](C)CC)C(=O)N(C)CC(=O)N(C)[C@H]2C/C=C\\CCN(C2=O)[C@@H](Cc2ccc(C(F)(F)F)cc2)C(=O)N(C)CC(=O)N[C@@H](CCc2ccc(C(F)(F)F)c(OC)c2)C(=O)N2C[C@@H](C)C[C@H]2C(=O)NC2(CC(C)(C)C2)C(=O)N(C)[C@@H](C2CCCC2)C(=O)N1C", "note": "[PP2001]", "values": [{"measurement": "HRAS/KRAS (ratio of KD value for HRAS to KD value for KRAS)", "setting": "[1]; [3]", "result": "A (a compound having 10 or more and less than 20 is denoted as A)"}, {"measurement": "NRAS/KRAS (ratio of KD value for NRAS to KD value for KRAS)", "setting": "[2]; [4]", "result": "A (a compound having 10 or more and less than 20 is denoted as A)"}]}]}
